Patent US20180368410A1, “MICROBIOCIDAL OXADIAZOLE DERIVATIVES” (SYNGENTA PARTICIPATIONS AG, priority 2015, published 2018)

What was measured:
Uromyces viciae-Fabael = experiment: Uromyces viciae-fabae / field bean / leaf disc preventative (faba-bean rust); type: in vivo, Uromyces viciae-fabae on field bean; details: foliar, 288 h, 100 ppm in the applied formulation, inoculated two hours after application, assessed 12 days after application, vs untreated control leaf discs, read-out: disease control
Protocol: Leaf disks or leaf segments of various plant species are cut from plants grown in a greenhouse. The cut leaf disks or segments are placed in multiwell plates (24-well format) onto water agar. The leaf disks are sprayed with a test solution before (preventative) or after (curative) inoculation. Compounds to be tested are prepared as DMSO solutions (max. 10 mg/ml) which are diluted to the appropriate concentration with 0.025% Tween20 just before spraying. The inoculated leaf disks or segments are incubated under defined conditions (temperature, relative humidity, light, etc.) according to the respective test system. A single evaluation of disease level is carried out 3 to 14 days after inoculation, depending on the pathosystem. Percent disease control relative to the untreated check leaf disks or segments is then calculated.
Field bean leaf discs are placed on water agar in multiwell plates (96-well format) and 10 μl of the formulated test compound diluted in acetone and a spreader pipetted onto the leaf disc. Two hours after application leaf discs are inoculated by spraying a spore suspension on the lower leaf surface. The leaf discs are incubated in a climate cabinet at 22° C. with 18 hour day and 70% relative humidity. The activity of a compound is assessed as percent disease control compared to untreated when an appropriate level of disease damage appears in untreated check leaf disks (12 days after application).
The following compounds at 100 ppm in the applied formulation give at least 80% disease control in this test when compared to untreated control leaf discs under the same conditions, which show extensive disease development.

[1] = tested on: Glomerella Lacenarium (Colletotrichum lacenarium); experiment: Glomerella lagenarium (Colletotrichum lagenarium) liquid culture / cucumber / preventative (anthracnose); type: cell-based; details: 20 ppm in the applied formulation, liquid culture in PDB, 24° C., inhibition of growth measured photometrically 3 to 4 days after application, vs untreated control, read-out: disease control
In short: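 Spore-based broth assay: conidia mixed into PDB meet compound from a DMSO solution in 96-well format, incubate at 24° C., then inhibition of growth is determined by photometry 3–4 days later relative to the untreated check.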

[2] = tested on: Puccinia recondita f. Sp. Tritici; experiment: Puccinia recondita f. sp. tritici / wheat / leaf disc preventative (brown rust); type: in vivo, Puccinia recondita f. sp. tritici on wheat cv. Kanzler; details: foliar, 200 ppm in the applied formulation, inoculated 1 day after application, assessed 7 to 9 days after application, vs untreated control leaf disks, read-out: disease control
In short: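 Wheat cv. Kanzler leaf segments on agar were sprayed with compound (DMSO stock diluted with 0.025% Tween20) 1 day before inoculation with spores. Segments were held at 19 °C, 75% rh, 12 h light/dark. Percent disease control versus untreated was scored 7–9 days after application.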

[3] = tested on: Puccinia recondita f. Sp. Triticil; experiment: Puccinia recondita f. sp. tritici / wheat / leaf disc curative (brown rust); type: in vivo, Puccinia recondita f. sp. tritici on wheat cv. Kanzler; details: foliar, 200 ppm in the applied formulation, applied 1 day after inoculation, assessed 6 to 8 days after application, vs untreated control leaf disks, read-out: disease control
In short: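 Compounds, prepared from DMSO solutions of at most 10 mg/ml and diluted just before spraying, are applied curatively to inoculated Kanzler wheat leaf segments. Segments are incubated at 19° C and 75% RH in a climate cabinet; disease control relative to untreated is evaluated 6 to 8 days later.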

Phakopsora pachyrhizi = Phakopsora pachyrhizi / soybean / leaf disc preventative (Asian soybean rust); type: in vivo, Phakopsora pachyrhizi on soybean; details: foliar, 200 ppm in the applied formulation, inoculated one day after application, assessed 12 to 14 days after application, vs untreated control leaf disks, read-out: disease control
In short: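 Read-out is percent disease control relative to untreated check discs, assessed once untreated discs show adequate disease, 12 to 14 days after application. Compounds, tested at 200 ppm in the applied formulation, are sprayed onto soybean leaf discs one day before inoculation with a spore suspension.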

Row | melting point [°C] | Compound | pest or weed control at 100 ppm (Uromyces viciae-Fabael) [%] | inhibition of growth at 20 ppm [1] [%] | pest or weed control at 200 ppm [2] [%] | pest or weed control at 200 ppm [3] [%] | pest or weed control at 200 ppm (Phakopsora pachyrhizi) [%]
1 | 183 to 190 | O=C(NCc1ccc(-c2noc(C(F)(F)F)n2)cc1)C1CC1 [Compound 1.1, N-[[4-[5-(trifluoromethyl)-1,2,4-oxadiazol-3-yl]phenyl]methyl] cyclopropanecarboxamide] | ≥ 80 | ≥ 80 | ≥ 80 | ≥ 80 | ≥ 80
2 | 101 to 108 | O=C(NCc1ccc(-c2noc(C(F)(F)F)n2)cc1)C1(F)CC1 [Compound 1.2, 1-fluoro-N-[[4-[5-(trifluoromethyl)-1,2,4-oxadiazol-3-yl]phenyl]methyl] cyclopropanecarboxamide] | ≥ 80 | ≥ 80 | ≥ 80 | ≥ 80 | ≥ 80
3 | 136 to 142 | O=C(NCc1ccc(-c2noc(C(F)(F)F)n2)cc1)c1ccccc1Cl [Compound 1.3, 2-chloro-N-[[4-[5-(trifluoromethyl)-1,2,4-oxadiazol-3-yl]phenyl]methyl]benzamide] | ≥ 80 | ≥ 80 | ≥ 80 |  | ≥ 80
4 | 102 to 112 | Cc1occc1C(=O)NCc1ccc(-c2noc(C(F)(F)F)n2)cc1 [Compound 1.4, 2-methyl-N-[[4-[5-(trifluoromethyl)-1,2,4-oxadiazol-3-yl]phenyl]methyl]furan-3-carboxamide] | ≥ 80 | ≥ 80 | ≥ 80 | ≥ 80 | ≥ 80
5 | 76 to 83 | O=C(NCc1ccc(-c2noc(C(F)(F)F)n2)cc1)C1CCCO1 (centres unmarked) [Compound 1.5, N-[[4-[5-(trifluoromethyl)-1,2,4-oxadiazol-3-yl]phenyl]methyl] tetrahydrofuran-2-carboxamide] | ≥ 80 | ≥ 80 | ≥ 80 | ≥ 80 | ≥ 80
